According to patent US7279582B2, “Retroviral protease inhibiting compounds” (priority 1995, dated 2007):

Experiments:
[1] = target: HIV protease (Human immunodeficiency virus type 1 group M subtype B, UniProt P04585); experiment: Fluorogenic assay for screening inhibitors of HIV protease; assay type: biochemical
Method: Fluorogenic Assay for Screening Inhibitors of HIV Protease
The inhibitory potency of the compound of the invention can be determined by the following method.
The compound of the invention is dissolved in DMSO and a small aliquot further diluted with DMSO to 100 times the final concentration desired for testing. The reaction is carried out in a 6×50 mm tube in a total volume of 300 microliters. The final concentrations of the components in the reaction buffer are: 125 mM sodium acetate, 1 M sodium chloride, 5 mM dithiothreitol, 0.5 mg/ml bovine serum albumin, 1.3 μM fluorogenic substrate, 2% (v/v) dimethylsulfoxide, pH 4.5. After addition of inhibitor, the reaction mixture is placed in the fluorometer cell holder and incubated at 30° C. for several minutes. The reaction is initiated by the addition of a small aliquot of cold HIV protease. The fluorescence intensity (excitation 340 nm, emmision 490 nM) is recorded as a function of time. The reaction rate is determined for the first six to eight minutes. The observed rate is directly proportional to the moles of substrate cleaved-per unit time. The percent inhibition is 100×(1−(rate in presence of inhibitor)/(rate in absence of inhibitor)).
Fluorogenic substrate: Dabcyl-Gaba-Ser-Gln-Asn-Tyr-Pro-lle-Val-Gln-EDANS wherein DABCYL=4-(4-dimethylamino-phenyl)azobenzoic acid, Gaba=γ-aminobutyric acid, and EDANS=5-((2-aminoethyl)amino)-naphthalene-1-sulfonic acid.

[2] = test system: uninfected MT4 cells; assay type: cell-based; details: n=4 duplicate determinations, read-out: LC50 (the source's name)
Description: (§1) The anti-HIV activity of the compound of the invention can be determined in MT4 cells according to the following procedure. MT4 cells were infected with cell-free supernatant of HIVIIIB (previously frozen with known 50% tissue culture infectious dose (TCID50) at 0.003 multiplicity of infection (MOI) for one hour. After one hour infection, cells were washed twice to remove residual viruses, resuspended in culture media and seeded into 96-well tissue culture plates at 1×10^4 cells per well with various half-log dilutions of compounds. Uninfected cells are included as toxicity and cell controls. RPMI 1640 media (Gibco) with 10% fetal bovine serum were used as culture media. Various concentrations of human serum (Sigma) 50%, 25% and 12.5% were added to culture media resulting in final concentration of 60%, 35% and 22.5% total serum. All assay plates were incubated in 37 deg. cent. incubator for 5 days. MTT (sigma, 5 mg/ml stock in PBS) was added to all wells at 25 ul per well, incubate for 4 hours. 20% SDS with 0.02 N HCI in water was added at 50 ul per well to lyse cells. Plates incubated overnight for complete lyses were read on a microtitre plate reader at 570/650 nm wavelengths to determine cell optical density (O.D.). Raw data were analysed for percent inhibition by the following formula: O.D. test well−O.D. virus control×100 O.D. cell control−O.D. virus control The 50% effective concentration (EC50) was calculated by the median effect equation (Chou, 1975, Proc. Int. Cong. Pharmacol. 6th p. 619) to determine the efficacy of compound. The 50% lethal concentration (LC50) was calculated using uninfected MT4 cells.
(§2) Under these conditions, the following data were obtained (n=4 duplicate determinations: […]

[3] = test system: HIVIIIB; experiment: Anti-HIV activity in MT4 cells infected with HIVIIIB (MTT readout); assay type: cell-based; details: 0% plasma, 5 days, n=4 duplicate determinations
Description: as §1, §2

[4] = Inhibitor Concentration 0.5 nanomolar

SMILES | Percent Inhibition [1, 4] | CC50 [2] | IC50 [3] | Percent Inhibition ([1]; Inhibitor Concentration 1.0 nanomolar)
CC(C)[C@@H](C(=O)N[C@@H](Cc1ccccc1)C[C@H](O)[C@H](Cc1ccccc1)NC(=O)O[C@@H]1CCS(=O)(=O)[C@@H]1C(C)C)N1CCCNC1=O (racemic) [Example 22E, (2S,3S,5S)-2-(cis(±)-1,1-Dioxo-2-isopropyl-3-tetrahydrothiophenoxy)amino-3-hydroxy-5-(2S-(1-tetrahydropyrimid-2-onyl)-3-methylbutanoyl)amino-1,6-diphenylhexane] | 71.8% |  |  | 
Cc1cccc(C)c1/C=C/C(=O)N[C@@H](Cc1ccccc1)[C@@H](O)C[C@H](Cc1ccccc1)NC(=O)[C@H](C(C)C)N1CCCNC1=O (relative stereo) [Example 19E] | 68.5% | 18000 nM | 0.395 µM | 
Cc1cccc(C)c1OCC(=O)N[C@@H](Cc1ccccc1)[C@@H](O)C[C@H](Cc1ccccc1)NC(=O)[C@H](C(C)C)N1CCNC1=O [Example 1P, (2S,3S,5S)-2-(2,6-dimethylphenoxyacetyl)amino-3-hydroxy-5-[2S-(1-imidazolidin-2-onyl)-3-methyl-butanoyl]amino-1,6-diphenylhexane] | 92.6% | 41300 nM | 0.01 µM | 
Cc1cccc(C)c1OCC(=O)N[C@@H](Cc1ccccc1)[C@@H](O)C[C@H](Cc1ccccc1)NC(=O)[C@H](C(C)C)N1CCCNC1=O [Example 2B, (2S,3S,5S)-2-(2,6-Dimethylphenoxyacetyl)amino-3-hydroxy-5-[2S-(1-tetrahydro-pyrimid-2-onyl)-3-methylbutanoyl]amino-1,6-diphenylhexane] | 93.2% | 17800 nM | 0.016 µM | 
Cc1cccc(C)c1OCC(=O)N[C@@H](Cc1ccccc1)[C@@H](O)C[C@H](Cc1ccccc1)NC(=O)[C@H](C(C)C)N1CCOC1=O [Example 3C, (2S,3S,5S)-2-(2,6-Dimethylphenoxyacetyl)amino-3-hydroxy-5-[2S-(3-oxazolidin-2-onyl)-3-methyl-butanoyl]amino-1,6-diphenylhexane] | 86.9% | 49500 nM | 0.025 µM | 
CC(C)[C@@H](C(=O)N[C@@H](Cc1ccccc1)C[C@H](O)[C@H](Cc1ccccc1)NC(=O)O[C@H]1CO[C@H]2OCC[C@H]21)N1CCN(C)C1=O [Example 4F, (2S,3S,5S)-2-[(3R, 3aS, 6aR)-Bis-tetrahydrofuranyloxy]amino-3-hydroxy-5-[2S-(3-methyl-1-imidazolidin-2-onyl)-3-methylbutanoyl]amino-1,6-diphenylhexane] | 49.7% | > 100000 nM | 0.101 µM | 
CC(C)[C@@H](C(=O)N[C@@H](Cc1ccccc1)C[C@H](O)[C@H](Cc1ccccc1)NC(=O)O[C@H]1CO[C@H]2OCC[C@H]21)N1CCNC1=O [Example 5, (2S,3S,5S)-2-[(3R,3aS,6aR)-Bis-tetrahydrofuranyloxy]amino-3-hydroxy-5-[2S-(1-imidazolidin-2-onyl)-3-methylbutanoyl]amino-1,6-diphenylhexane] | 80.8% | > 100000 nM | 0.368 µM | 
CC(C)[C@@H](C(=O)N[C@@H](Cc1ccccc1)C[C@H](O)[C@H](Cc1ccccc1)NC(=O)OCc1cncs1)N1CCNC1=O [Example 6F, (2S,3S,5S)-2-(N-((5-Thiazolyl)methoxycarbonyl)amino)-5-((2S-(1-imidazolidin-2-onyl)-3-methyl-butanoyl)-amino)-3-hydroxy-1,6-diphenylhexane] | 61.4% | > 100000 nM | 0.193 µM | 
CC(C)(C)[C@@H](C(=O)N[C@@H](Cc1ccccc1)C[C@H](O)[C@H](Cc1ccccc1)NC(=O)OCc1cncs1)N1CCNC1=O [Example 7B, (2S,3S,5S)-2-(N-((5-Thiazolyl)-methoxycarbonyl)amino)-3-hydroxy-5-(2S-(1-imidazolidin-2-onyl)-3,3-dimethylbutanoyl)amino-1,6-diphenylhexane] | 67.1% | > 100000 nM | 0.204 µM | 
Cc1cccc(C)c1OCC(=O)N[C@@H](Cc1ccccc1)[C@@H](O)C[C@H](Cc1ccccc1)NC(=O)[C@@H](N1CCNC1=O)C(C)(C)C [Example 8, (2S,3S,5S)-2-(2,6-Dimethylphenoxyacetyl)amino-3-hydroxy-5-(2S-(1-imidazolidin-2-onyl)-3,3-dimethylbutanoyl)amino-1,6-diphenylhexane] | 55.6% | 17800 nM | 0.019 µM | 
Cc1cccc(C)c1OCC(=O)N[C@@H](Cc1ccccc1)[C@@H](O)C[C@H](Cc1ccccc1)NC(=O)[C@H](C(C)C)N1CCNC1=S [Example 9B, (2S,3S,5S)-2-(2,6-Dimethylphenoxyacetyl)amino-3-hydroxy-5-(2S-(1-imidazolidin-2-thionyl)-3-methylbutanoyl)amino-1,6-diphenylhexane] | 62.6% | 19300 nM | 0.272 µM | 
Cc1cc(N)cc(C)c1OCC(=O)N[C@@H](Cc1ccccc1)[C@@H](O)C[C@H](Cc1ccccc1)NC(=O)[C@H](C(C)C)N1CCNC1=O [Example 10F, (2S,3S,5S)-2-(4-Amino-2,6-dimethylphenoxyacetyl)amino-3-hydroxy-5-(2S-(1-imidazolidin-2-onyl)-3-methyl-butanoyl)amino-1,6-diphenylhexane] | 81.0% | 92000 nM | 0.047 µM | 
Cc1cc(C)c(OCC(=O)N[C@@H](Cc2ccccc2)[C@@H](O)C[C@H](Cc2ccccc2)NC(=O)[C@H](C(C)C)N2CCNC2=O)c(C)c1 [Example 11B, (2S,3S,5S)-2-(2,4,6-Trimethylphenoxyacetyl)amino-3-hydroxy-5-(2S-(1-imidazolidin-2-onyl)-3-methylbutanoyl)amino-1,6-diphenylhexane] | 91.1% | 18200 nM | 0.19 µM | 
Cc1cc(F)cc(C)c1OCC(=O)N[C@@H](Cc1ccccc1)[C@@H](O)C[C@H](Cc1ccccc1)NC(=O)[C@H](C(C)C)N1CCNC1=O [Example 12B, (2S,3S,5S)-2-(4-Fluoro-2,6-dimethylphenoxyacetyl)amino-3-hydroxy-5-(2S-(1-imidazolidin-2-onyl)-3-methyl-butanoyl)amino-1,6-diphenylhexane] | 76.8% | 19100 nM | 0.093 µM | 
Cc1ncnc(C)c1OCC(=O)N[C@@H](Cc1ccccc1)[C@@H](O)C[C@H](Cc1ccccc1)NC(=O)[C@H](C(C)C)N1CCNC1=O [Example 13B, (2S,3S,5S)-2-(4,6-Dimethylpyrimidin-5-oxy-acetyl)amino-3-hydroxy-5-(2S-(1-imidazolidin-2-onyl)-3-methyl-butanoyl)amino-1,6-diphenylhexane] |  |  |  | 56.2%
Cc1ccnc(C)c1OCC(=O)N[C@@H](Cc1ccccc1)[C@@H](O)C[C@H](Cc1ccccc1)NC(=O)[C@@H](N1CCNC1=O)C(C)(C)C [Example 14D, (2S,3S,5S)-2-(2,4-Dimethyl-pyridin-3-oxy-acetyl)amino-3-hydroxy-5-(2S-(1-imidazolidin-2-onyl)-3,3-dimethylbutanoyl)amino-1,6-diphenylhexane] | 52.7% | > 100000 nM | 0.053 µM | 
Cc1cccc(C)c1CCC(=O)N[C@@H](Cc1ccccc1)[C@@H](O)C[C@H](Cc1ccccc1)NC(=O)[C@H](C(C)C)N1CCCNC1=O [Example 20D, (2S,3S,5S)-2-(3-(2,6-Dimethylphenyl)propanoyl)amino-3-hydroxy-5-(2S-(1-tetrahydropyrimidin-2-onyl)-3-methyl-butanoyl)amino-1,6-diphenylhexane] |  | 24100 nM | 0.283 µM | 
Cc1cccc(C)c1OCC(=O)N[C@@H](Cc1ccccc1)[C@@H](O)C[C@H](Cc1ccccc1)NC(=O)[C@H](C(C)C)N1CCC(=O)NC1=O [Example 23C, (2S,3S,5S)-2-(2,6-Dimethylphenoxyacetyl)amino-3-hydroxy-5-(2S-(1-dihydropyrimid-2,4-dionyl)-3-methyl-butanoyl)amino-1,6-diphenylhexane] | 86.0% |  |  | 
